In paper PMC5388927 (Virology, 2008):

Key:
HIV-1 = details: cited from earlier work
SARS-CoV = details: cited from earlier work
poliovirus = details: cited from earlier work
WEEV (strain Cova 746) = format: cell-based, Western equine encephalitis virus
WNV VLP = format: cell-based, West Nile virus; details: 1.5 μM
vaccinia virus = details: cited from earlier work
in vitro = details: African green monkey
[1] = test system: herpes simplex virus (type 1); details: cited from earlier work
DENV-1 VLP = format: cell-based, dengue virus (DENV-1); details: 1.5 μM
[2] = test system: VSV (New Jersey serotype); format: cell-based, vesicular stomatitis virus

Q: With O[C@H]1[C@H]2c3cc4c(cc3CN3CCC(=C[C@@H]1O)[C@H]23)OCO4 [Lycorine] as the compound, how does the antiviral activity (HIV-1) read?
A: The antiviral activity was “does not inhibit”.

Q: And the antiviral activity (SARS-CoV)?
A: The antiviral activity was “inhibit”.

Q: What about the antiviral activity (poliovirus) of the same compound?
A: Its antiviral activity is “inhibit”.

Q: What about the “suppression of viral translation” value (poliovirus) of the same compound?
A: Its value is ~90%.

Q: And the “suppression of viral titer” value (WEEV (strain Cova 746))?
A: The value was “suppressed titers of neither WEEV nor VSV”.

Q: What about the “reduction of luciferase signals” value (WNV VLP) of the same compound?
A: Its value is 1400 fold.

Q: What about the antiviral activity (vaccinia virus) of the same compound?
A: Its antiviral activity is “inhibit”.

Q: What about the viability at 1.5 µM (in vitro) of the same compound?
A: Its viability at 1.5 µM is > 90%.

Q: And the antiviral activity [1]?
A: The antiviral activity was “inhibit”.

Q: And the “reduction of luciferase signals” value (DENV-1 VLP)?
A: The value was 1200 fold.

Q: What about the “suppression of viral titer” value [2] of the same compound?
A: Its value is “suppressed titers of neither WEEV nor VSV”.
